# Test results published in patent US20080311657A1, “Killing Human Lymphoma and Leukemia Cancer Cells and Tcr-Activated Normal Human Cells By Dopamine D1r Agonists” (priority 2005, published 2008).
# “And” between values parts separate entries of the source, which are not always exact repeats. Equal entries are not always repeated. “Also recorded” adds a separate entry of the source.
# Columns and labels:
# [1] = system: Human T-cell leukemia (Jurkat) cells; experiment: Number of living cells counted by flow cytometry (FACSort) after D1R agonist; type: cell-based; conditions: added four times during 1 hour, counted 3 days later
# Procedure: Afterwards, the microtiter plates were placed in an incubator (37° C., humidified incubator, 5% CO2) for 3 days. Then, the number of living cells was evaluated by flow cytometry (the cells were counted by FACsort for a fixed time length of 1 min, in which 100 microliter of each sample was tested). Of note, A 77636 hydrochloride is an orally-active D1R agonist, according to the manufacturer (Tocris).
# Afterwards, the microtiter plates were placed in an incubator (37° C., humidified incubator, 5% CO2) for 3 days. Then, the number of living cells was evaluated by flow cytometry (the cells were counted by FACsort for a fixed time length of 1 min, in which 100 microliter of each sample was tested).
# (§1) The experiment was designed to test the effect of exposing the cells to the D1R agonist for 1 min, 15 min, 1 hr or 72 hr. Thus, 1 min, or 15 min or 1 hr after the addition of the D1R agonist, the corresponding cells were transferred into tubes, centrifuged (1000 rpm for 10 min); and the supernatant was removed. […] Thus, its medium was not replaced, and these cells and remained as such in the incubator for 72 hr. At the end of the 72 hr incubation, the number of living cells was evaluated by flow cytometry (the cells were counted by FACsort for a fixed time length of 1 min, in which 100 microliter of each sample was tested).
# (§2) Cell viability was tested afterwards.
# (§3) For this purpose, the Jurkat T-cell leukemia line, the HuT-78 human T-lymphoma (cutaneous “Sezary” T-lymphoma) line, and the K-562 human Chronic-Myeloid Leukemia (CML) and Daudi Human B-lymphoma (Burkitt's lymphoma) lines were seeded in tissue culture wells (0.5 million cells/0.5 ml/well).
# (§4) Cell survival/death was evaluated 3 days later by counting the number of living cells, using flow cytometry.
# [2] = system: Human cutaneous Sezary T-lymphoma cells (HuT-78); experiment: as above; type: cell-based; conditions: added four times during 1 hour, counted 3 days later
# [3] = patients receiving the 48 hour FDA-approved infusion; cited from earlier work
# [4] = system: Human Burkitt's B-Cell Lymphoma (Daudi); experiment: Cell death by LDH release (CytoTox 96); type: cell-based; conditions: FDM 10^−4M-10^−12M, added four times during 1 hour
# Procedure: as §2
# [5] = system: Human T-cell leukemia (Jurkat); experiment: Cell death by LDH release (CytoTox 96); type: cell-based; conditions: FDM 10^−4M-10^−12M, added four times during 1 hour
# Procedure: as §2
# [6] = system: Human T-Cell Lymphoma (HuT-78); experiment: Cell death by LDH release (CytoTox 96); type: cell-based; conditions: FDM 10^−4M-10^−12M, added four times during 1 hour
# [7] = system: Human chronic myelogenous leukemia cells (CML) (K-562); experiment: Number of living cells counted by flow cytometry (FACSort) after D1R agonist; type: cell-based; conditions: added four times during 1 hour, counted 3 days later
# Procedure: (§5) Human chronic myelogenous leukemia cells (CML) (K-562) were seeded in 96 well plates (0.5 ml per well of 0.5 million cells/ml) and A 77636 hydrochloride was added and diluted 1:00 into the wells at starting concentrations of 10^−1M-10^−4M, so that the final concentration range tested was 10^−3M-10^−6M. Afterwards, the microtiter plates were placed in an incubator (37° C., humidified incubator, 5% CO2) for 3 days. Then, the number of living cells was evaluated by flow cytometry (the cells were counted by FACsort for a fixed time length of 1 min, in which 100 microliter of each sample was tested).
# as §5, with “68930” for “77636”
# as §5, with “SKF 38393 hydrobromide” for “A 77636 hydrochloride”
# as §1, with “Human chronic myelogenous leukemia cells (CML) (K-562) were seeded in 96 well plates (0.5 ml per well of 0.5 million cells/ml) and A 77636 hydrochloride was added and diluted 1:00 into the wells, at a fixed starting concentration of 10^−2M, so that the final concentration tested was 10^−4M. The” for “The”, “min),” for “min);”
# as §2, §3, §4
# The effect of dopamine itself (that can of course activate all its D1R-5 receptors) was also tested. All of these molecules were tested at a similar concentration (10^−4 M). […] The specificity and restriction of the effect to the D1R is also seen in Tables 7 and 8.
# [8] = system: TCR-activated normal human T-cells; experiment: Cell death by LDH release (CytoTox 96); type: cell-based; conditions: FDM 10^−4M-10^−10M, added four times during 1 hour; methanesulfonate
# Procedure: Non-tissue culture treated 24-well plates (Falcon, Franklin Lakes, N.J.) were coated overnight at 4° C. with anti-CD3 and anti-CD28 monoclonal antibodies (mabs) (BD Pharmingen, San Jose, Calif.); ([…] in PBS). The wells were then washed with PBS, blocked for 1 hour at 37° C. (PBS/1% BSA), and washed again. The freshly purified normal human T-cells were resuspended in their respective fresh media and seeded in the anti-CD3/CD28 coated wells (1×10^6 per well), and the plates were incubated for 72 hours (37° C., humidified incubator, 5% CO2). Then, the cells and their media were collected from each well, transferred into 50 ml tubes, centrifuged (1200 rpm, 10 minutes) and both the TCR-activated cells and their culture media were collected and transferred into clean separate tubes.
# as §2
# [9] = system: Human Chronic Myeloid Leukemia (CML, K-562); experiment: Cell death by LDH release (CytoTox 96); type: cell-based; conditions: FDM 10^−4M-10^−12M, added four times during 1 hour
structure (smiles),measurement,setting,value
"CS(=O)(=O)O.Oc1ccc(C2CNCCc3c2cc(O)c(O)c3Cl)cc1 (stereo not drawn) [FDM, 6-chloro-2,3,4,5-tetrahydro-1-(4-hydroxyphenyl)-[1H]-3-benzazepine-7,8-diol methanesulfonate]",% Dead Cells,[1]; FDM 10^−4M,~100%
same,No. of Living Cells,[1]; FDM 10^−4M,4
same,% Dead Cells,[1]; FDM 10^−6M,18%
same,No. of Living Cells,[1]; FDM 10^−6M,15938
same,No. of Living Cells,[1]; FDM 10^−8M,7451
same,% Dead Cells,"[1]; FDM 10^−8M, methanesulfonate",62%
same,% Dead Cells,[1]; FDM 10^−10M,52%
same,No. of Living Cells,[1]; FDM 10^−10M,9472
same,% Dead Cells,[1]; FDM 10^−12M,46%
same,No. of Living Cells,[1]; FDM 10^−12M,10568
same,% Dead Cells,[2]; FDM 10^−4M,99%
same,No. of Living Cells,[2]; FDM 10^−4M,213
same,% Dead Cells,[2]; FDM 10^−6M,28%
same,No. of Living Cells,[2]; FDM 10^−6M,17023
same,No. of Living Cells,[2]; FDM 10^−8M,16080
same,% Dead Cells,"[2]; FDM 10^−8M, methanesulfonate",32%
same,% Dead Cells,[2]; FDM 10^−10M,38%
same,No. of Living Cells,[2]; FDM 10^−10M,14728
same,% Dead Cells,[2]; FDM 10^−12M,46%
same,No. of Living Cells,[2]; FDM 10^−12M,12662
same,Approximate steady state concentration in the circulation,[3],~10^−8 M
same,"Killing evident by LDH release (FIG. 5), in words",[4],kills human Burkitt's B-lymphoma in a dose dependent manner
same,"Killing evident by LDH release (FIG. 2), in words",[5],kills human T-cell leukemia in a dose dependent manner
same,"Killing evident by LDH release (FIG. 3), in words",[6],kills human cutaneous Sezary T-cell lymphoma in a dose dependent manner
same,% Dead Cells,[7]; FDM 10^−4M,100%
same,No. of Living Cells,[7]; FDM 10^−4M,21
same,% Dead Cells,[7]; FDM 10^−6M,34%
same,No. of Living Cells,[7]; FDM 10^−6M,18680
same,No. of Living Cells,[7]; FDM 10^−8M,21137
same,% Dead Cells,"[7]; FDM 10^−8M, methanesulfonate",25% and 26%
same,% Dead Cells,[7]; FDM 10^−10M,25%
same,No. of Living Cells,[7]; FDM 10^−10M,21476
same,% Dead Cells,[7]; FDM 10^−12M,33%
same,No. of Living Cells,[7]; FDM 10^−12M,19250
same,"Killing evident by LDH release (FIG. 8), in words",[8],"marked death; also recorded: kills human TCR-activated T-cells, in a dose dependent manner"
same,"Killing evident by LDH release (FIG. 4), in words",[9],kills human chronic myelogenous leukemia (CML) in a dose dependent manner
